Measurements: patent US20090176773A1, “Non-Peptidic Inhibitors of AKAP/PKA Interaction” (FORSCHUNGSVERBUND BERLIN E.V., priority 2005, published 2009)

How the values were obtained:
[1] = target: T1, interaction of AKAP18delta with regulatory RIIalpha subunits of PKA in IMCD cells (Rattus norvegicus, UniProt P12368+Q6JP77); assay: cAMP agarose precipitation, Western blot and RII overlay in IMCD cells; type: cell-based; conditions: 100 μM, 30 min, FIG. 22
T1 construct: endogenous in cells; host or cells: primary cultured rat IMCD cells
Method: The substance (see Tables A, B and D) was identified by screening a substance library comprising 20,064 compounds, using the ELISA-based test array illustrated in FIG. 17. Primarily cultured IMCD cells either remained untreated (control) or were incubated for 30 min with substance 990 (100 μM) or with cAMP as negative control. Subsequently, the cells were lysed and subjected to cAMP agarose precipitation (Henn et al., JBC 279, 26654, 2004).
A: AKAP18delta was detected in the lysates and in the cAMP agarose precipitates (cAMP agarose) using the AKAP18delta-specific antibody A18delta4 in a Western blot (Henn et al., 2004). cAMP was added to the batch as negative control. As a result, binding of regulatory subunits of PKA to the cAMP agarose was inhibited in a competitive fashion. For this reason, no AKAPs are precipitated and, as a consequence, AKAP18delta cannot be detected in this sample. AKAP18delta produced in a recombinant fashion was used as positive control.
B: To detect the AKAPs in the lysates and cAMP agarose precipitates, an RII overlay was carried out (Henn et al., JBC 279, 26654, 2004). AKAP18delta produced in a recombinant fashion was detected as positive control. AKAP18delta is indicated by arrows in A and B.

[2] = system: vasopressin (AVP)-dependent redistribution of the aquaporin-2 (AQP2) water channel in renal principal cells (IMCD cells); assay: AVP-induced redistribution of AQP2 in primarily cultured IMCD cells (immunofluorescence, laser scanning microscope); type: cell-based, rat; conditions: FIG. 18 and 21
Method: Initially, collecting duct cells from the inner medulla of rat kidneys (IMCD cells) can be stimulated with AVP in the presence or absence of the substances so as to stimulate AQP2 translocation. Thereafter, immunofluorescence staining can be performed, wherein the cells—following incubation—are fixed and made permeable. Using antibodies coupled to fluorescent dyes, the intracellular localization of AQP2 can subsequently be determined under a fluorescence microscope. In this way it is possible to investigate the influence of the substances on the presumably AKAP18delta-dependent translocation of AQP2.
Inhibition of the vasopressin (AVP)-dependent redistribution of the aquaporin-2 (AQP2) water channel in renal principal cells by the substances specified (see Table B; concentrations of inhibitors in μM). Primarily cultured principal cells from the inner medulla of rat kidneys (IMCD cells) represent a model for the AVP-induced translocation of AQP2. Said redistribution is the molecular basis of AVP-induced water reabsorption in the kidneys. AQP2 was detected by means of a specific antiserum and Cy3-labelled secondary antibodies in untreated cells (control) and in cells treated with AVP or substances, using a laser scanning microscope (Tamma et al., 2003; Henn et al., 2004).
Effect of the low-molecular weight substances 18882, 990 and 990 derivatives SM61 and SM65 on AVP-induced redistribution of AQP2 in IMCD cells (see FIG. 18). The structures and chemical properties of the substances are illustrated in Tables A, B and C (concentrations of inhibitors in μM). AQP2 was detected by means of a specific antiserum and Cy3-labelled secondary antibodies in untreated cells (control) and in cells treated with AVP or substances, using a laser scanning microscope (Tamma et al., 2003; Henn et al., 2004). […] In contrast, the substances 18882 and the 990 derivative SM65 have no influence on AVP-induced AQP2 redistribution at the concentrations used.

[3] = target: T2, interaction of AKAP18delta with regulatory RIIalpha subunits of PKA in myocardial cells (Rattus norvegicus, UniProt P12368+Q6JP77); assay: cAMP agarose precipitation, Western blot and RII overlay in neonatal myocardial cells; type: cell-based; conditions: 100 μM, 30 min, FIG. 23
T2 construct: endogenous in cells; host or cells: primary cultured neonatal (rat) myocardial cells
Method: In contrast, substance 990 has no influence on this interaction. The substances (see Tables A, B and D) were identified by screening a substance library comprising 20,064 compounds, using the ELISA-based test array illustrated in FIG. 17. Primarily cultured neonatal myocardial cells either remained untreated (control) or were incubated for 30 min with the substances 990, 18882 (100 μM each time) or with cAMP as negative control. Subsequently, the cells were lysed and subjected to cAMP agarose precipitation (Henn et al., JBC 279, 26654, 2004). A: AKAP18delta was detected in the lysates and in the cAMP agarose precipitates (cAMP agarose), using the AKAP18delta-specific antibody A18delta4 in a Western blot (Henn et al., JBC 279, 26654, 2004). cAMP was added to the batch as negative control. As a result, binding of regulatory subunits of PKA to the cAMP agarose was inhibited in a competitive fashion. For this reason, no AKAPs are precipitated and, as a consequence, AKAP18delta cannot be detected in this sample. AKAP18delta produced in a recombinant fashion was used as positive control. B: Using Western blotting, regulatory RIIbeta subunits of PKA were detected in the same samples as specified in A. As expected, no RIIbeta is detected in the sample containing cAMP (see A.). […] AKAP18delta produced in a recombinant fashion was detected as positive control.

[4] = system: L-type Ca^2+ channel currents; assay: Patch-clamp measurement of L-type Ca2+ channel currents in neonatal rat myocardial cells; type: cell-based; conditions: isoproterenol 1 μM stimulation, FIG. 24
From the text: Another experiment is measurement of the Ca^2+ currents through L-type Ca^2+ channels in primarily cultured myocardial cells from neonatal rats using the patch clamp technique. To this effect, membrane sections of a single cell are fixed by a buffer-filled glass capillary, and a constant voltage is applied across the membrane. A current pulse can trigger a measurable increase of the Ca^2+ current through the voltage-dependent L-type Ca^2+ channels situated in the fixed membrane region.
After stimulating the cells with the non-specific β-adrenoreceptor agonist isoproterenol, an increase of the Ca^2+ channel current is to be expected because receptor activation triggers the AKAP18alpha-dependent signal cascade described in section 3.3. As a result, the L-type Ca^2+ channel is phosphorylated, thereby increasing its open probability. Such measurements can be performed in the presence or absence of the substances, so that the effect on the signaling pathway can be quantified indirectly via the currents being measured.
L-type Ca^2+ channel currents were measured in neonatal rat myocardial cells using the patch-clamp technique. The cells were held at −70 mV and repeatedly depolarized to a test potential of 0 mV (after an increase to −35 mV for 400 ms). […] Currents were measured 400 s after the whole cell configuration had established. […]

T2 sequence (P12368 2-401): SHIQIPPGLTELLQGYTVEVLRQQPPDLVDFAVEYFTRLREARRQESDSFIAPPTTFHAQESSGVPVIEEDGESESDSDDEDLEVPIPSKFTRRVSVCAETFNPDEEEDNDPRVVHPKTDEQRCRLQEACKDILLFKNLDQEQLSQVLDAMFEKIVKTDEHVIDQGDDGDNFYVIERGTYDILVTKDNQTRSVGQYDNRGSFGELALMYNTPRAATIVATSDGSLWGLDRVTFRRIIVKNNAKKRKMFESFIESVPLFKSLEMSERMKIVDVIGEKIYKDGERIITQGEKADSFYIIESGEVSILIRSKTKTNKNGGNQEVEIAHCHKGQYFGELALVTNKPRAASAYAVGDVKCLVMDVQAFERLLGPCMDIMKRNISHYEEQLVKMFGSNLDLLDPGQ
T2 sequence (Q6JP77 whole entry): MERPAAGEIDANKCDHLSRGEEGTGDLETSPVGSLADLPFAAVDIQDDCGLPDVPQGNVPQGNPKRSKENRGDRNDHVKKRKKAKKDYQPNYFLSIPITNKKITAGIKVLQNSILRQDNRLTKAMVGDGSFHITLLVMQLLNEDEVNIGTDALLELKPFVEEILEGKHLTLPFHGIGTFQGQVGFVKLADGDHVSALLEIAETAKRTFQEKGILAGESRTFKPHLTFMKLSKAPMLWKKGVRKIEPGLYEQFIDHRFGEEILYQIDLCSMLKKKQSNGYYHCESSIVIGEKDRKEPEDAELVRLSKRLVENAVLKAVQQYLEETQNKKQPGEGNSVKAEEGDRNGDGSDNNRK
T1 sequence (Q6JP77 whole entry): as above
T1 sequence (P12368 whole entry): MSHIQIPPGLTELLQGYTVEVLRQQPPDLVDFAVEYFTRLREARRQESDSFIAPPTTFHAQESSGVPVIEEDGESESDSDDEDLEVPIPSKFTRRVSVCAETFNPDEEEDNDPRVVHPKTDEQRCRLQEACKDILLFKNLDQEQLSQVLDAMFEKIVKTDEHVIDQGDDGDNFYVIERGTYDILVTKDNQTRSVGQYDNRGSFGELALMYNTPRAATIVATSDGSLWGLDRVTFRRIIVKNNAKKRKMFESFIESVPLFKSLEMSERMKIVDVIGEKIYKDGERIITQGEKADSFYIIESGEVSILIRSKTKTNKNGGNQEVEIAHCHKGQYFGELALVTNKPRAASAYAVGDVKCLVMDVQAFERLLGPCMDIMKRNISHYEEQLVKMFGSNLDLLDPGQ

Row | SMILES | Inhibition of AKAP18delta-RIIalpha interaction in IMCD cells [1] | Effect on AVP-induced redistribution of AQP2 [2] | Inhibition of AKAP18delta-RIIalpha interaction in myocardial cells [3] | Effect on L-type Ca2+ channel currents [4]
1 | N=C(N)SCc1cccc2ccccc12 [Compound 990] | inhibits the interaction | prevents the AVP-induced redistribution of AQP2 | no influence | –
2 | Nc1cc(Cc2ccc(O)c(N)c2)ccc1O [Compound 18882] | – | no influence | inhibits the interaction | Inhibition of L-type Ca^2+ channel currents
